Results reported in PMC10041525, “New Dual Inhibitors of Bacterial Topoisomerases with Broad-Spectrum Antibacterial Activity and In Vivo Efficacy against Vancomycin-Intermediate Staphylococcus aureus” (Journal of Medicinal Chemistry, 2023).
Values joined by “and” are separate entries in the source; they are usually repeats but may differ in a detail not shown here. Equal values may be shown once. Read-outs that look alike come from different tables or passages of the source.

Tests used:
[1] = tested on: 3 sensitive and 7 MDR A. baumannii clinical isolates; test: MIC, Hungarian clinical isolates and controls (384-well); format: cell-based
[2] = tested on: Chinese hamster ovary K1 cells; test: in vitro micronucleus test; settings: without S9, 1 µM
[3] = tested on: S. aureus ATCC 700699 (VISA); format: in vivo, female CD-1 mice
Protocol: The neutropenic mouse thigh infection model study was performed by NeoSome Life Sciences, LLC (Lexington, MA, USA) according to NeoSome Institutional Animal Care and Use Committee (IACUC) policies and guidelines as well as NIH’s Office of Laboratory Animal Welfare (OLAW) standards.
Neutropenic mouse thigh infection experiments were performed on female CD-1 mice (Charles River Laboratories, USA). To induce neutropenia, mice received two doses of cyclophosphamide on days −4 and −1 with 150 and 100 mg/kg delivered intraperitoneally (IP), respectively. The inoculum of the testing strain, S. aureus ATCC 700699-P1 (VISA), was prepared from overnight agar plate cultures. To prepare bacterial inoculums, a portion of the plate was resuspended in sterile saline and adjusted to an OD of 0.12 at 625 nm. Next, the resulted bacterial suspension was further diluted to reach an infecting inoculum of 6.0 × 10^5 cfu per each mouse. Plate counts of the inoculum were also performed in each case to confirm the inoculum concentration, and the actual inoculum size was 7.25 × 10^5 cfu/mouse. Mice were inoculated with 100 μL of the prepared bacterial suspension via an intramuscular injection into the right rear thigh. […] The test agent was then dosed via IV administration, to ensure optimal distribution, at 2, 10, and 18 h post-infection. Beginning at 2 h, post-infection mice were dosed with either test article or positive control antibiotic. Mice receiving test agents were dosed intravenously at 10 mL/kg. Linezolid was delivered as a SC dose to ensure optimized exposure, distribution, and efficacy. Four animals were dosed per group. One group of four mice was euthanized at the initiation of therapy (t = 2 h) and cfus determined. All remaining mice were euthanized at 26 h post-infection. At termination, thighs were aseptically excised, weighed, and homogenized to a uniform consistency in 2 mL of sterile saline. The homogenate was serially diluted and plated on bacterial growth media. The cfus were enumerated after overnight incubation.

## NCC[C@H](O)C(=O)N[C@@H]1C[C@H](N)[C@@H](O[C@H]2O[C@H](CN)[C@@H](O)[C@H](O)[C@H]2O)[C@H](O)[C@H]1O[C@H]1O[C@H](CO)[C@@H](O)[C@H](N)[C@H]1O [Amikacin, amikacin]
[1]; n=10, MIC 2 µg/mL
  Cumulative % at MIC: 10%
[1]; n=10, MIC 256 µg/mL
  Cumulative % at MIC: 100%

## C[C@@H](O)[C@H]1C(=O)N2C(C(=O)O)=C(S[C@@H]3CN[C@H](CNS(N)(=O)=O)C3)[C@H](C)[C@H]12 [Doripenem, doripenem]
[1]; n=10, MIC 0.0625 µg/mL
  Cumulative % at MIC: 10%
[1]; n=10, MIC 2 µg/mL
  Cumulative % at MIC: 30%
[1]; n=10, MIC 128 µg/mL
  Cumulative % at MIC: 60%
[1]; n=10, MIC 256 µg/mL
  Cumulative % at MIC: 100%
[1]; n=10, MIC […]
  Cumulative % at MIC: 20%

## CO[C@@]12[C@H](COC(N)=O)C3=C(C(=O)C(C)=C(N)C3=O)N1C[C@@H]1N[C@@H]12 [Mitomycin C]
[2]
  No. binucleate cells: 920

## NC[C@H]1O[C@H](O[C@H]2[C@H](O)[C@@H](O[C@H]3O[C@H](CO)[C@@H](O)[C@H](N)[C@H]3O)[C@H](N)C[C@@H]2N)[C@H](N)C[C@@H]1O [Tobramycin, tobramycin]
[1]; n=10, MIC 1 µg/mL
  Cumulative % at MIC: 10%
[1]; n=10, MIC 2 µg/mL
  Cumulative % at MIC: 20%
[1]; n=10, MIC […] µg/mL
  Cumulative % at MIC: 70%
[1]; n=10, MIC 256 µg/mL
  Cumulative % at MIC: 100%
[1]; n=10, MIC […] µg/mL
  Cumulative % at MIC: 60%

## CC(=O)NC[C@H]1CN(c2ccc(N3CCOCC3)c(F)c2)C(=O)O1 [linezolid]
[3]; 50 mg/kg BID/SC
  Change in log10CFU/gr of thigh from 2 hour control: -0.61
[3]; 50 mg/kg BID/SC, 26 h
  Average log10CFU/gr of thigh: 5.69
[3]; 50 mg/kg SC (BID)
  reduction compared to 2 hour infection controls: 0.61 log10 cfu
  reduction compared to 26 hour infection controls: 2.41 log10 cfu
[3]; linezolid group
  CFU/ g of thigh, single animals: 7.27E+05 and 7.86E+05 and 5.42E+05 and 1.84E+05
  log CFU, single animals: 5.86 and 5.90 and 5.73 and 5.26

## colistin
[1]
  Cumulative % at MIC: 50% and 70% and 100%
[1]; all 10 isolates
  MIC inhibiting all strains: 4 µg/mL

## imipenem/relebactame
[1]; n=10, MIC 0.5 µg/mL
  Cumulative % at MIC: 20%
[1]; n=10, MIC 2 µg/mL
  Cumulative % at MIC: 30%
[1]; n=10, MIC 64 µg/mL
  Cumulative % at MIC: 70%
[1]; n=10, MIC 128 µg/mL
  Cumulative % at MIC: 90%
[1]; n=10, MIC 256 µg/mL
  Cumulative % at MIC: 100%

## trimethoprim/sulfamethoxazole
[1]; n=10, MIC […] µg/mL
  Cumulative % at MIC: 20%
[1]; n=10, MIC 32 µg/mL
  Cumulative % at MIC: 70%
[1]; n=10, MIC 64 µg/mL
  Cumulative % at MIC: 100%
